CN1CCN(C2=Nc3cc(Cl)ccc3Nc3ccccc32)CC1
solubility (mole fraction)
Conditions	278.15 K	283.15 K	288.15 K	293.15 K	298.15 K	303.15 K	308.15 K	313.15 K	318.15 K	323.15 K
in 2-butanone	0.0216	0.0242	0.0274	0.0303	0.0339	0.0374	0.0416	0.0458	0.0505	0.0558
in DMF	0.0953	0.1	0.106	0.112	0.117	0.123	0.129	0.135	0.141	0.148
in THF	0.0624	0.0668	0.0716	0.0765	0.0815	0.0866	0.0919	0.0978	0.103	0.109
in acetone	0.0116	0.0133	0.0151	0.0172	0.0197	0.0223	0.0251	0.0283	0.0323	0.0363
in acetonitrile	0.00213	0.00234	0.0026	0.00285	0.00316	0.00344	0.0038	0.00413	0.00452	0.0049
in chloroform	0.0625	0.0652	0.0681	0.0712	0.0741	0.0771	0.0801	0.0837	0.0871	0.0905
in ethanol	0.00533	0.0059	0.0066	0.00735	0.00811	0.0089	0.00988	0.0108	0.0119	0.0131
in ethyl acetate	0.0109	0.0121	0.0135	0.0152	0.0169	0.0191	0.0209	0.0232	0.0256	0.0283
in ethyl formate	0.032	0.0343	0.0367	0.0393	0.0419	0.0443	0.047	0.0499	0.0527	0.0564
in isobutanol	0.00666	0.00731	0.00809	0.00888	0.00987	0.0108	0.0119	0.013	0.0142	0.0155
in isopentanol	0.0083	0.00932	0.0103	0.0116	0.0128	0.0142	0.0156	0.0173	0.019	0.0212
in isopropanol	0.00278	0.00322	0.00367	0.00419	0.00487	0.00544	0.00615	0.00693	0.00781	0.00894
in methanol	0.00633	0.00702	0.00766	0.00839	0.00921	0.00999	0.0109	0.012	0.013	0.014
in methyl acetate	0.0124	0.0141	0.0158	0.0173	0.019	0.021	0.0229	0.0251	0.0277	0.0303
in n-butanol	0.00796	0.00891	0.01	0.0113	0.0126	0.0141	0.0154	0.0172	0.0189	0.0208
in n-pentanol	0.00905	0.0102	0.0115	0.0128	0.0143	0.0159	0.0174	0.0193	0.0213	0.0231
in n-propanol	0.00708	0.00814	0.00924	0.0105	0.0118	0.0134	0.0148	0.0164	0.0183	0.0204
in sec-butanol	0.0046	0.00509	0.00566	0.00617	0.0068	0.00744	0.00812	0.00893	0.00975	0.0107

Reference: BigSolDB 2.1
